Like-named read-outs stand apart in the source and are kept apart here.
Key:
268ala = experiment: Enzyme kinetics of prodrugs with 268ala mutant of human CPA1 (coupled assay); type: biochemical; conditions: 25° C., pH 7.4
Text: (§1) As indicated herein, the in vivo stable prodrug of the present invention should be a better substrate for a mutant enzyme than the corresponding wild type enzyme in order for the stable prodrug to be activated selectively at the tumour. […] The most relevant kinetic constant in the table is the kcat/Km, which provides an estimate of the second order rate constant for the enzyme catalyzed conversion of prodrug to methotrexate. Thus, the larger the kcat/Km, the more efficient the enzyme with a particular substrate. […] Thus, the single mutation at 268 from thr to gly converted very poor substrates in the wild type enzyme to excellent substrates in the mutant enzyme. […] Thus, the compounds are much better substrates for the mutant enzyme than the wild type enzyme which permits very specific tumor targeted activation of the nontoxic, stable prodrug to the active agent.
(§2) Kinetics were determined by a modification of the coupled assay of Kuefner, et al (1989) Biochemistry 28 2288-2297 in which the product MTX is converted by excess carboxypeptidase G to the pteroate of MTX. In this assay the reaction is followed spectrophotometrically at 315 nm; at this wavelength the change in molar absorbtivity for the coupled reaction was determined to be 9.57 mM^-1 cm^-1. Assays were performed at 25° C. in 25 mM tris-HCl, 100 mM NaCl, pH 7.4. Prodrugs were preincubated at 25° C. with buffer and 17 milliunits of Sigma #C-9658 carboxypeptidase G in 1 ml total volume. Assay was initiated with carboxypeptidase A or the appropriate mutant. Initial velocities were obtained, and standard Michaelis-Menten calculations were used to determine kinetic constants (in Biochemistry, Lehninger, A. L. 1970, Worth Publishers, Inc, NY).

[1] = biological target: T1, wild type human carboxypeptidase A1 (Homo sapiens, UniProt P15085); experiment: Enzyme kinetics of prodrugs with wild type human carboxypeptidase A1 (coupled assay); type: biochemical
T1 sequence (P15085 111-419): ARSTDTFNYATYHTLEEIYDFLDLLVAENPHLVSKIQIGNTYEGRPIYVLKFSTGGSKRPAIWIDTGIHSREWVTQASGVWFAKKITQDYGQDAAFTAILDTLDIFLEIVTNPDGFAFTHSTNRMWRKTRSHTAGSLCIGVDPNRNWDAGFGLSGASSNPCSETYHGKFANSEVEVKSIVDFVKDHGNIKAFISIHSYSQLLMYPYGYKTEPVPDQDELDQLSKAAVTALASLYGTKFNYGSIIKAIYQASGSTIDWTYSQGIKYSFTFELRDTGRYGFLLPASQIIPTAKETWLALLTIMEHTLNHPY
Text: as §1, §2

in vivo = conditions: mouse, iv
268gly = experiment: Enzyme kinetics of prodrugs with 268gly mutant of human CPA1 (coupled assay); type: biochemical; conditions: 268gly; 25° C., pH 7.4
Text: as §1, §2

[2] = Stability and biodistribution of prodrugs in vivo (HPLC of plasma and tissues); design: species or system mice (CD-1 nude; BALB/C where indicated); conditions: for stability in vivo (in words): mice
mutant enzyme = experiment: Substrate behaviour with mutant enzyme; type: biochemical, human
Text: This type of compound is not useful for ADEPT.

[3] = CECUM, 30 min, 50 mg/kg i.p. or i.v., CD-1 nude mice
[4] = KIDNEY, 30 min, 50 mg/kg i.p. or i.v., CD-1 nude mice
[5] = KIDNEY, 120 min, 50 mg/kg i.p. or i.v., CD-1 nude mice
[6] = LARGE INTESTINE, 30 min, 50 mg/kg i.p. or i.v., CD-1 nude mice
[7] = LARGE INTESTINE, 120 min, 50 mg/kg i.p. or i.v., CD-1 nude mice
[8] = LIVER, 30 min, 50 mg/kg i.p. or i.v., CD-1 nude mice
[9] = LIVER, 120 min, 50 mg/kg i.p. or i.v., CD-1 nude mice
[10] = SMALL INTESTINE, 30 min, 50 mg/kg i.p. or i.v., CD-1 nude mice
[11] = SPLEEN, 30 min, 50 mg/kg i.p. or i.v., CD-1 nude mice
[12] = TUMOR, 30 min, 50 mg/kg i.p. or i.v., CD-1 nude mice
[13] = mouse, cecum, 50 mg/kg, CECUM, 30 min, 50 mg/kg i.p. or i.v., CD-1 nude mice, read-out: stability: percentage of material observed as intact prodrug, cecum
[14] = mouse, kidney, 50 mg/kg, KIDNEY, 30 min, 50 mg/kg i.p. or i.v., CD-1 nude mice, read-out: stability: percentage of material observed as intact prodrug, kidney
[15] = mouse, large intestine, 50 mg/kg, LARGE INTESTINE, 30 min, 50 mg/kg i.p. or i.v., CD-1 nude mice, read-out: stability: percentage of material observed as intact prodrug, large intestine
[16] = mouse, large intestine, 50 mg/kg, LARGE INTESTINE, 120 min, 50 mg/kg i.p. or i.v., CD-1 nude mice, read-out: stability: percentage of material observed as intact prodrug, large intestine
[17] = mouse, liver, 50 mg/kg, LIVER, 30 min, 50 mg/kg i.p. or i.v., CD-1 nude mice, read-out: stability: percentage of material observed as intact prodrug, liver (converted)
[18] = mouse, liver, 50 mg/kg, LIVER, 120 min, 50 mg/kg i.p. or i.v., CD-1 nude mice, read-out: stability: percentage of material observed as intact prodrug, liver
[19] = mouse, plasma, 50 mg/kg, PLASMA, 30 min, 50 mg/kg i.p. or i.v., CD-1 nude mice, read-out: concentration of prodrug in plasma
[20] = mouse, plasma, 50 mg/kg, PLASMA, 30 min, 50 mg/kg i.p. or i.v., CD-1 nude mice, read-out: stability: percentage of material observed as intact prodrug, plasma
[21] = mouse, small intestine, 50 mg/kg, SMALL INTESTINE, 30 min, 50 mg/kg i.p. or i.v., CD-1 nude mice, read-out: stability: percentage of material observed as intact prodrug, small intestine
[22] = mouse, small intestine, 50 mg/kg, SMALL INTESTINE, 120 min, 50 mg/kg i.p. or i.v., CD-1 nude mice, read-out: stability: percentage of material observed as intact prodrug, small intestine
[23] = mouse, spleen, 50 mg/kg, SPLEEN, 30 min, 50 mg/kg i.p. or i.v., CD-1 nude mice, read-out: stability: percentage of material observed as intact prodrug, spleen
[24] = mouse, tumor, 50 mg/kg, TUMOR, 30 min, 50 mg/kg i.p. or i.v., CD-1 nude mice, read-out: stability: percentage of material observed as intact prodrug, tumor

## CN(Cc1cnc2nc(N)nc(N)c2n1)c1ccc(C(=O)N[C@@H](CCC(=O)O)C(=O)N[C@@H](Cc2cccc(C3CCCC3)c2)C(=O)O)cc1
268ala
  Km: 31 µM
  kcat: 0.001 s⁻¹
[1]; Human CPA1, rate too slow to assay
  kcat (symbol ND): ND (not determined; rate to slow assay. kcat ≤ 0.0005/sec.)
In vivo
  MTD: > 40 mg/kg
  NOAEL: ≥ 40 mg/kg
268gly
  Km: 15 µM
  kcat: 1.4 s⁻¹

## CN(Cc1cnc2nc(N)nc(N)c2n1)c1ccc(C(=O)N[C@@H](CCC(=O)O)C(=O)N[C@@H](Cc2ccccc2)C(=O)O)cc1 [Prodrug 10, N-(4-(((2,4-diamino-6-pteridinyl)methyl)methylamino)benzoyl)-L-glutam-1-yl-L-pheylalanine, reference compound]
268ala
  Km: 0.9 µM
  kcat: 2 s⁻¹
[1]
  substrate for wild type CPA (in words): good substrate
[2]; [3]
  concentration of prodrug in cecum: 3.0 nmol/g
[2]; [4]
  concentration of prodrug in kidney: 26.9 nmol/g
[2]; [5]
  concentration of prodrug in kidney: 0.0 nmol/g
[2]; [6]
  concentration of prodrug in large intestine: 19.3 nmol/g
[2]; [7]
  concentration of prodrug in large intestine: 1.1 nmol/g
[2]; [8]
  concentration of prodrug in liver: 335.1 nmol/g
[2]; [9]
  concentration of prodrug in liver: 0.6 nmol/g
[2]; [10]
  concentration of prodrug in small intestine: 17.3 nmol/g
[2]; [11]
  concentration of prodrug in spleen: 19.9 nmol/g
[2]; [12]
  concentration of prodrug in tumor: 3.0 nmol/g
[2]; 50 mg/kg
  stability in vivo (in words): not stable in vivo
[2]; [13]
  remaining at 0.5 h: 65%
[2]; [14]
  remaining at 0.5 h: 100%
[2]; [15]
  remaining at 0.5 h: 65.3%
[2]; [16]
  remaining at 2 h: 21.6%
[2]; [17]
  remaining at 0.5 h: 94.4%
[2]; [18]
  remaining at 2 h: 7.55%
[2]; [19]
  concentration at 0.5 h: 17.8 µM
[2]; [20]
  remaining at 0.5 h: 30.2%
[2]; mouse, plasma, 50 mg/kg, PLASMA, 120 min, 50 mg/kg i.p. or i.v., CD-1 nude mice, read-out: concentration of prodrug in plasma
  concentration at 2 h: 1.1 µM
[2]; mouse, plasma, 50 mg/kg, PLASMA, 120 min, 50 mg/kg i.p. or i.v., CD-1 nude mice, read-out: stability: percentage of material observed as intact prodrug, plasma
  remaining at 2 h: 2.1%
[2]; [21]
  remaining at 0.5 h: 16%
[2]; [22]
  remaining at 2 h: 0%
[2]; [23]
  remaining at 0.5 h: 80.4%
[2]; [24]
  remaining at 0.5 h: 65%
268gly
  Km: 0.3 µM
  kcat: 2.2 s⁻¹

## CN(Cc1cnc2nc(N)nc(N)c2n1)c1ccc(C(=O)N[C@@H](CCC(=O)O)C(=O)N[C@@H](Cc2cccc(C3CCC3)c2)C(=O)O)cc1 [Prodrug 11]
[1]
  substrate for wild type CPA (in words): not for the wild type enzyme
Mutant enzyme
  substrate for a mutant enzyme (in words): good substrates for a mutant enzyme
[2]; [3]
  concentration of prodrug in cecum: 4.5 nmol/g
[2]; CECUM, 120 min, 50 mg/kg i.p. or i.v., CD-1 nude mice
  concentration of prodrug in cecum: 0.8 nmol/g
[2]; FECES, 30 min, 50 mg/kg i.p. or i.v., CD-1 nude mice
  concentration of prodrug in feces: 426.8 nmol/g
[2]; FECES, 120 min, 50 mg/kg i.p. or i.v., CD-1 nude mice
  concentration of prodrug in feces: 389.8 nmol/g
[2]; [4]
  concentration of prodrug in kidney: 7.3 nmol/g
[2]; [5]
  concentration of prodrug in kidney: 3.0 nmol/g
[2]; [6]
  concentration of prodrug in large intestine: 2.7 nmol/g
[2]; [7]
  concentration of prodrug in large intestine: 4.4 nmol/g
[2]; [8]
  concentration of prodrug in liver: 53.8 nmol/g
[2]; [9]
  concentration of prodrug in liver: 47.8 nmol/g
[2]; [10]
  concentration of prodrug in small intestine: 301.3 nmol/g
[2]; SMALL INTESTINE, 120 min, 50 mg/kg i.p. or i.v., CD-1 nude mice
  concentration of prodrug in small intestine: 140.0 nmol/g
[2]; [11]
  concentration of prodrug in spleen: 2.7 nmol/g
[2]; [12]
  concentration of prodrug in tumor: 4.8 nmol/g
[2]; TUMOR, 120 min, 50 mg/kg i.p. or i.v., CD-1 nude mice
  concentration of prodrug in tumor: 2.4 nmol/g
[2]; 50 mg/kg
  stability in vivo (in words): stable in vivo
[2]; [13]
  remaining at 0.5 h: 100%
[2]; mouse, cecum, 50 mg/kg, CECUM, 120 min, 50 mg/kg i.p. or i.v., CD-1 nude mice, read-out: stability: percentage of material observed as intact prodrug, cecum
  remaining at 2 h: 100%
[2]; mouse, feces, 50 mg/kg, FECES, 30 min, 50 mg/kg i.p. or i.v., CD-1 nude mice, read-out: stability: percentage of material observed as intact prodrug, feces (converted)
  remaining at 0.5 h: 92.3%
[2]; mouse, feces, 50 mg/kg, FECES, 120 min, 50 mg/kg i.p. or i.v., CD-1 nude mice, read-out: stability: percentage of material observed as intact prodrug, feces
  remaining at 2 h: 67.9%
[2]; [14]
  remaining at 0.5 h: 83.5%
[2]; mouse, kidney, 50 mg/kg, KIDNEY, 120 min, 50 mg/kg i.p. or i.v., CD-1 nude mice, read-out: stability: percentage of material observed as intact prodrug, kidney
  remaining at 2 h: 82.3%
[2]; [15]
  remaining at 0.5 h: 74.5%
[2]; [16]
  remaining at 2 h: 85%
[2]; [17]
  remaining at 0.5 h: 81.3%
[2]; [18]
  remaining at 2 h: 73.3%
[2]; [19]
  concentration at 0.5 h: 22.2 µM
[2]; [20]
  remaining at 0.5 h: 97.1%
[2]; [21]
  remaining at 0.5 h: 86.7%
[2]; [22]
  remaining at 2 h: 67.7%
[2]; [23]
  remaining at 0.5 h: 96.5%
[2]; [24]
  remaining at 0.5 h: 100%
[2]; mouse, tumor, 50 mg/kg, TUMOR, 120 min, 50 mg/kg i.p. or i.v., CD-1 nude mice, read-out: stability: percentage of material observed as intact prodrug, tumor
  remaining at 2 h: 88.1%

— patent US6319702A, “Nucleic acids encoding mutant human carboxypeptidase A enzymes” (Glaxo Wellcome, Inc., priority 1993, dated 2001)
